Counter-ions that a name gives are not always drawn.
Each compound was assayed against indoleamine 2, 3-dioxygenase (IDO1) (Homo sapiens, UniProt P14902) (assay: HeLa IDOi assay (kynurenine detection by mass spectrometry)). Conditions: IFN-γ stimulated human epithelial HeLa cells, 2 days.
indoleamine 2, 3-dioxygenase (IDO1), sequence (P14902 whole entry): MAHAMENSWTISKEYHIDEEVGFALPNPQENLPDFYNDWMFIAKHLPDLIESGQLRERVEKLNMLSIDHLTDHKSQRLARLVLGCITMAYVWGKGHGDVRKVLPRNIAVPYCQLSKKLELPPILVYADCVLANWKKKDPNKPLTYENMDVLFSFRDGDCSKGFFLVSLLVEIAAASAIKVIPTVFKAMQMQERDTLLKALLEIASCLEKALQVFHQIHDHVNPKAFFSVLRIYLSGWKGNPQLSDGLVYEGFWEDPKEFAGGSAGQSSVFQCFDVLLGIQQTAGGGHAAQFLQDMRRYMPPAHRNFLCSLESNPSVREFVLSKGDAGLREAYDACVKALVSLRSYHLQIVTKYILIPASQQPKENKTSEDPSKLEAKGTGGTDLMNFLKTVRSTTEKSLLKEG
Assay type: cell-based
Design: human epithelial HeLa cells (CCL-2; host or cells: HeLa cells stimulated with human IFN-γ
Experimental: Compounds of the present invention were tested via high-throughput cellular assays utilizing detection of kynurenine via mass spectrometry and cytotoxicity as end-points. For the mass spectrometry and cytotoxicity assays, human epithelial HeLa cells (CCL-2; ATCC®, Manassas, Va.) were stimulated with human interferon-γ (IFN-γ) (Sigma-Aldrich Corporation, St. Louis, Mo.) to induce the expression of indoleamine 2, 3-dioxygenase (IDO1). Compounds with IDO1 inhibitory properties decreased the amount of kynurenine produced by the cells via the tryptophan catabolic pathway. Cellular toxicity due to the effect of compound treatment was measured using CellTiter-Glo® reagent (CTG) (Promega Corporation, Madison, Wis.), which is based on luminescent detection of ATP, an indicator of metabolically active cells.
In preparation for the assays, test compounds were serially diluted 3-fold in DMSO from a typical top concentration of 5 mM and plated at 0.5 μL in 384-well, polystyrene, clear bottom, tissue culture treated plates with lids (Greiner Bio-One, Kremsmünster, Austria) to generate 11-point dose response curves. Low control wells (0% kynurenine or 100% cytotoxicity) contained either 0.5 μL of DMSO in the presence of unstimulated (−IFN-γ) HeLa cells for the mass spectrometry assay or 0.5 μL of DMSO in the absence of cells for the cytotoxicity assay, and high control wells (100% kynurenine or 0% cytotoxicity) contained 0.5 μL of DMSO in the presence of stimulated (+IFN-γ) HeLa cells for both the mass spectrometry and cytotoxicity assays.
Frozen stocks of HeLa cells were washed and recovered in DMEM high glucose medium with HEPES (Thermo Fisher Scientific, Inc., Waltham, Mass.) supplemented with 10% v/v certified fetal bovine serum (FBS) (Thermo Fisher Scientific, Inc., Waltham, Mass.), and 1× penicillin-streptomycin antibiotic solution (Thermo Fisher Scientific, Inc., Waltham, Mass.). The cells were diluted to 100,000 cells/mL in the supplemented DMEM medium. 50 μL of either the cell suspension, for the mass spectrometry assay, or medium alone, for the cytotoxicity assay, were added to the low control wells, on the previously prepared 384-well compound plates, resulting in 5,000 cells/well or 0 cells/well respectively. IFN-γ was added to the remaining cell suspension at a final concentration of 10 nM, and 50 μL of the stimulated cells were added to all remaining wells on the 384-well compound plates. The plates, with lids, were then placed in a 37° C., 5% CO2 humidified incubator for 2 days.
Following incubation, the 384-well plates were removed from the incubator and allowed to equilibrate to room temperature for 30 minutes. For the cytotoxicity assay, CellTiter-Glo® was prepared according to the manufacturer's instructions, and 10 μL were added to each plate well. After a twenty minute incubation at room temperature, luminescence was read on an EnVision® Multilabel Reader (PerkinElmer Inc., Waltham, Mass.). For the mass spectrometry assay, 10 μL of supernatant from each well of the compound-treated plates were added to 40 μL of acetonitrile, containing 10 μM of an internal standard for normalization, in 384-well, polypropylene, V-bottom plates (Greiner Bio-One, Kremsmünster, Austria) to extract the organic analytes. Following centrifugation at 2000 rpm for 10 minutes, 10 μL from each well of the acetonitrile extraction plates were added to 90 μL of sterile, distilled H2O in 384-well, polypropylene, V-bottom plates for analysis of kynurenine and the internal standard on the RapidFire 300 (Agilent Technologies, Santa Clara, Calif.) and 4000 QTRAP MS (SCIEX, Framingham, Mass.). MS data were integrated using Agilent Technologies' RapidFire Integrator software, and data were normalized for analysis as a ratio of kynurenine to the internal standard. […]
CC(C)CN(CC(C)C)c1ccc(C(C)CC(=O)O)cc1Nc1nc2ccccc2[nH]1 (stereo not drawn) [Example 2, 3-(3-((1H-benzo[d]imidazol-2-yl)amino)-4-(diisobutylamino)phenyl)butanoic acid] was tested, and the EC50 was 3.98 nM.
With CC(C)CN(CC(C)C)c1ccc(C(C)CC(=O)O)cc1Nc1nc(-c2ccccc2)co1 (stereo not drawn) [Example 3, 3-(4-(diisobutylamino)-3-((4-phenyloxazol-2-yl)amino)phenyl)butanoic acid] the EC50 was 501 nM.
In the case of CC(C)CN(CC(C)C)c1ccc(C(C)CC(=O)O)cc1Nc1nc(C(C)C)co1 (stereo not drawn) [Example 4, 3-(4-(diisobutylamino)-3-((4-isopropyloxazol-2-yl)amino)phenyl)butanoic acid], the EC50 is reported as 631 nM.
With CC(C)CN(CC(C)C)c1ccc(C(C)CC(=O)O)cc1Nc1nc(C(F)(F)F)co1 (stereo not drawn) [Example 5, 3-(4-(diisobutylamino)-3-((4-(trifluoromethyl)oxazol-2-yl)amino)phenyl)butanoic acid] the EC50 was 20 nM.
Compound CC(C)CN(c1ccc(C(C)CC(=O)O)cc1Nc1nc2ccccc2[nH]1)C1CCCCC1 (stereo not drawn) [Example 6, 3-(3-((1H-benzo[d]imidazol-2-yl)amino)-4-(cyclohexyl(isobutyl)amino)phenyl)butanoic acid] has an EC50 of 2.51 nM.
For CC(C)CN(c1ccc(C(C)CC(=O)O)cc1Nc1nc(Cl)ns1)C1CCCCC1 (stereo not drawn) [Example 7, 3-(3-((3-chloro-1,2,4-thiadiazol-5-yl)amino)-4-(cyclohexyl(isobutyl)amino)phenyl)butanoic acid], the EC50 was 5.01 nM.
Work on CC(C)CN(c1ccc(C(C)CC(=O)O)cc1Nc1nc2ccccc2o1)C1CCCCC1 (stereo not drawn) [Example 8, 3-(3-(benzo[d]oxazol-2-ylamino)-4-(cyclohexyl(isobutyl)amino)phenyl)butanoic acid] yielded an EC50 of 31.6 nM.
With CC(C)CN(c1ccc(C(C)CC(=O)O)cc1Nc1nc2ccccc2s1)C1CCCCC1 (stereo not drawn) [Example 9, 3-(3-(benzo[d]thiazol-2-ylamino)-4-(cyclohexyl(isobutyl)amino)phenyl)butanoic acid] the EC50 was 3.98 nM.
In the case of CC(C)CN(c1ccc(C(C)CC(=O)O)cc1Nc1nc(-c2ccccc2)co1)C1CCCCC1 (stereo not drawn) [Example 10, 3-(4-(cyclohexyl(isobutyl)amino)-3-((4-phenyloxazol-2-yl)amino)phenyl)butanoic acid], the EC50 is reported as 100 nM.
CC(C)CN(CC(C)C)c1ccc(C(C)CC(=O)O)cc1Nc1ccnc(Cl)n1 (stereo not drawn) [Example 11, 3-(3-((2-chloropyrimidin-4-yl)amino)-4-(diisobutylamino)phenyl)butanoic acid, 2,2,2-trifluoro-acetic acid salt] showed an EC50 of 100 nM.
Compound CC(C)CN(c1ccc(C(C)CC(=O)O)cc1Nc1ccnc(Cl)n1)C1CCCCC1 (stereo not drawn) [Example 13, 3-(3-((2-chloropyrimidin-4-yl)amino)-4-(cyclohexyl(isobutyl)amino)phenyl)butanoic acid] has an EC50 of 12.6 nM.
COc1nccc(Nc2cc(C(C)CC(=O)O)ccc2N(CC(C)C)C2CCCCC2)n1 (stereo not drawn) [Example 14, 3-(4-(cyclohexyl(isobutyl)amino)-3-((2-methoxypyrimidin-4-yl)amino)phenyl)butanoic acid] was tested, and the EC50 was 39.8 nM.
Work on Cc1cnc(Nc2cc(C(C)CC(=O)O)ccc2N(CC(C)C)CC(C)C)s1 (stereo not drawn) [Example 15, 3-(4-(diisobutylamino)-3-((5-methylthiazol-2-yl)amino)phenyl)butanoic acid] yielded an EC50 of 158 nM.
For CC(C)CN(CC(C)C)c1ccc(C(C)CC(=O)O)cc1Nc1cnc(-c2ccccc2)s1 (stereo not drawn) [Example 16, 3-(4-(diisobutylamino)-3-((2-phenylthiazol-5-yl)amino)phenyl)butanoic acid], the EC50 was 126 nM.
CCOC(=O)c1ncc(Nc2cc(C(C)CC(=O)O)ccc2N(CC(C)C)CC(C)C)s1 (stereo not drawn) [Example 17, 3-(4-(diisobutylamino)-3-((2-(ethoxycarbonyl)thiazol-5-yl)amino)phenyl)butanoic acid] gave an EC50 of 25.1 nM.
Cc1csc(Nc2cc(C(C)CC(=O)O)ccc2N(CC(C)C)CC(C)C)n1 (stereo not drawn) [Example 24, 3-(4-(diisobutylamino)-3-((4-methylthiazol-2-yl)amino)phenyl)butanoic acid] was tested, and the EC50 was 316 nM.
CC(C)CN(CC(C)C)c1ccc(C(C)CC(=O)O)cc1Nc1nnc(C2CC2)s1 (stereo not drawn) [Example 26, 3-(3-((5-cyclopropyl-1,3,4-thiadiazol-2-yl)amino)-4-(diisobutylamino)phenyl)butanoic acid, 2,2,2-trifluoro-acetic acid salt] gave an EC50 of 5.01 nM.
Compound CC(C)CN(CC(C)C)c1ccc(C(C)CC(=O)O)cc1Nc1nnc(-c2ccccc2)s1 (stereo not drawn) [Example 27, 3-(4-(diisobutylamino)-3-((5-phenyl-1,3,4-thiadiazol-2-yl)amino)phenyl)butanoic acid] has an EC50 of 31.6 nM.
For Cc1nnc(Nc2cc(C(C)CC(=O)O)ccc2N(CC(C)C)CC(C)C)s1 (stereo not drawn) [Example 28, 3-(4-(diisobutylamino)-3-((5-methyl-1,3,4-thiadiazol-2-yl)amino)phenyl)butanoic acid], the EC50 was 31.6 nM.
CC(C)CN(CC(C)C)c1ccc(C(C)CC(=O)O)cc1Nc1nc(C2CC2)ns1 (stereo not drawn) [Example 30, 3-(3-((3-cyclopropyl-1,2,4-thiadiazol-5-yl)amino)-4-(diisobutylamino)phenyl)butanoic acid] showed an EC50 of 50.1 nM.
With Cc1nsc(Nc2cc(C(C)CC(=O)O)ccc2N(CC(C)C)CC(C)C)n1 (stereo not drawn) [Example 31, 3-(4-(diisobutylamino)-3-((3-methyl-1,2,4-thiadiazol-5-yl)amino)phenyl)butanoic acid] the EC50 was 79.4 nM.
In the case of CC(C)CN(CC(C)C)c1ccc(C(C)CC(=O)O)cc1Nc1nc(Br)ns1 (stereo not drawn) [Example 32, 3-(3-((3-bromo-1,2,4-thiadiazol-5-yl)amino)-4-(diisobutylamino)phenyl)butanoic acid], the EC50 is reported as 200 nM.
For CC(C)CN(c1ccc(C(C)CC(=O)O)cc1Nc1nc(C(F)(F)F)ns1)C1CCCCC1 (stereo not drawn) [Example 33, 3-(4-(cyclohexyl(isobutyl)amino)-3-((3-(trifluoromethyl)-1,2,4-thiadiazol-5-yl)amino)phenyl)butanoic acid], the EC50 was 2.51 nM.
CCCCc1cc(C(C)CC(=O)O)cc(Nc2nc3ccccc3o2)c1OCCC (stereo not drawn) [Example 35, 3-(3-(benzo[d]oxazol-2-ylamino)-5-butyl-4-propoxyphenyl)butanoic acid] gave an EC50 of 200 nM.
Compound CCCCc1cc(C(C)CC(=O)O)cc(Nc2nc(Cl)ns2)c1OCCC (stereo not drawn) [Example 36, 3-(3-butyl-5-((3-chloro-1,2,4-thiadiazol-5-yl)amino)-4-propoxyphenyl)butanoic acid, 2,2,2-trifluoroacetic acid salt] has an EC50 of 158 nM.
Cc1nc(Nc2cc(C(C)CC(=O)O)ccc2N(CC(C)C)CC(C)C)sc1C (stereo not drawn) [Example 43, 3-(4-(diisobutylamino)-3-((4,5-dimethylthiazol-2-yl)amino)phenyl)butanoic acid] was tested, and the EC50 was 316 nM.
With CC(C)CN(CC(C)C)c1ccc(C(C)CC(=O)O)cc1Nc1nc(C(F)(F)F)cs1 (stereo not drawn) [Example 44, 3-(4-(diisobutylamino)-3-((4-(trifluoromethyl)thiazol-2-yl)amino)phenyl)butanoic acid] the EC50 was 20 nM.
Work on Cc1sc(Nc2cc(C(C)CC(=O)O)ccc2N(CC(C)C)CC(C)C)nc1C(F)(F)F (stereo not drawn) [Example 45, 3-(4-(diisobutylamino)-3-((5-methyl-4-(trifluoromethyl)thiazol-2-yl)amino)phenyl)butanoic acid] yielded an EC50 of 79.4 nM.
With CC(C)CN(CC(C)C)c1ccc(C(C)CC(=O)O)cc1Nc1nc(C(C)C)cs1 (stereo not drawn) [Example 46, 3-(4-(diisobutylamino)-3-((4-isopropylthiazol-2-yl)amino)phenyl)butanoic acid] the EC50 was 126 nM.
Compound CC(C)CN(CC(C)C)c1ccc(C(C)CC(=O)O)cc1Nc1nc(-c2ccccc2)no1 (stereo not drawn) [Example 51, 3-(4-(diisobutylamino)-3-((3-phenyl-1,2,4-oxadiazol-5-yl)amino)phenyl)butanoic acid] has an EC50 of 398 nM.
